Results published in patent publication US20200022963A1, “PHARMACEUTICAL COMPOSITION COMPRISING BETAHISTINE” (Otolanum AG, priority 2017, published 2020).
Read-outs that look alike come from different tables or passages of the source.

Assay: Pharmacokinetic profile after single oral, intranasal and intravenous betahistine in beagle dogs, Example 5
Format: in vivo
Conditions: dog; for concentration at 0 h / concentration at 5 min / concentration at 0.167 h / concentration at 0.333 h / concentration at 0.5 h / concentration at 1 h / concentration at 2 h / concentration at 3 h / concentration at 6 h / concentration at 24 h: Betahistine Plasma Concentration
Experimental: In this study, the pharmacokinetic profile of betahistine was evaluated after a single dose administration of betahistine in male and female beagle dogs (age 5-7 months; weight of 5-11 kg, within a range of 3 kg for each sex) for three routes of administration: oral, intranasal, and intravenous.
On Day 1 of the study, betahistine (BH) was delivered orally at a dose of 12 mg/kg, 24 mg/kg, or 48 mg/kg. Each treatment group comprised 8 animals (4 males and 4 females). For pharmacokinetic assessment, plasma samples were collected prior to dosing, and then at 5, 10, 20 and 30 min, 1, 2, 3, 6, 24 hours after dosing.
On Day 8 of the study, the animals that received oral BH at a dose of 12 mg/kg were administered the test betahistine composition intranasally at a dose of 40 mg betahistine dihydrochloride; the animals that received oral BH at a dose of 24 mg/kg were administered the test betahistine composition intranasally at a dose of 80 mg betahistine dihydrochloride; and the animals that received oral BH at a dose of 48 mg/kg were administered the test betahistine composition intranasally at a dose of 120 mg betahistine dihydrochloride. The test betahistine composition was delivered intranasally in a single dose via an Aptar nasal spray pump device at a total dose level of 40, 80 and 120 mg of betahistine dihydrochloride. Plasma samples were collected prior to dosing, and then at 5, 10, 20 and 30 min, 1, 2, 3, 6, 24 hours after dosing.
On Day 15 of the study, the animals that received oral BH at a dose of 12 mg/kg and the test betahistine composition intranasally at a dose of 40 mg betahistine dihydrochloride were administered a bolus intravenous injection of betahistine at a dose of 0.44 mg/kg. Plasma samples were collected prior to dosing, and then at 5, 10, 20 and 30 min, 1, 2, 3, 6, 24 hours after dosing.
Betahistine 13CD3 dihydrochloride and 2-pyridylacetic acid-D4 hydrochloride were used as respective internal standards. The calibration range for betahistine was 0.05-250 ng/mL and for 2-PAA 2.00-3000 ng/mL using a plasma sample volume of 0.50 mL.
For determination of betahistine, the method involved liquid-liquid extraction, for 2-PAA, the method involved protein precipitation. Plasma samples were prepared for betahistine by extraction under basic conditions with an organic solvent, then the organic phase was dried, reconstituted and transferred for LC/MS-MS analysis. […] Sample analysis was performed using reversed phase chromatography.

[1] = both sexes, beagle, in vivo, iv, 0.44 mg/kg
[2] = both sexes, beagle, in vivo, po, 12 mg/kg
[3] = both sexes, beagle, in vivo, po, 24 mg/kg
[4] = both sexes, beagle, in vivo, po, 48 mg/kg
[5] = female, beagle, in vivo, inhaled or intranasal, 6 mg/kg
[6] = female, beagle, in vivo, inhaled or intranasal, 13 mg/kg
[7] = female, beagle, in vivo, inhaled or intranasal, 17.7 mg/kg
[8] = female, beagle, in vivo, iv, 0.44 mg/kg
[9] = female, beagle, in vivo, po, 12 mg/kg
[10] = female, beagle, in vivo, po, 24 mg/kg

SMILES: CNCCc1ccccn1 [betahistine]
- Cmax (beagle, in vivo, oral BH 48 mg/kg, male, Day 1, read-out: Cmax): 102 ± 30.2 ng/mL
- concentration at 0 h [1]: 0.0825 ng/mL
- concentration at 5 min [1]: 50.9 ng/mL
- concentration at 0.167 h [1]: 22 ng/mL
- concentration at 0.333 h [1]: 7.03 ng/mL
- concentration at 0.5 h [1]: 4.82 ng/mL
- concentration at 1 h [1]: 0.308 ng/mL
- concentration at 2 h [1]: 0.633 ng/mL
- concentration at 3 h [1]: 0.0878 ng/mL
- concentration at 6 h [1]: 0.849 ng/mL
- concentration at 24 h [1]: 0.202 ng/mL
- concentration at 0 h [2]: 0 ng/mL
- concentration at 5 min [2]: 1.97 ng/mL
- concentration at 0.167 h [2]: 4.6 ng/mL
- concentration at 0.333 h [2]: 7.96 ng/mL
- concentration at 0.5 h [2]: 13.4 ng/mL
- concentration at 1 h [2]: 9.86 ng/mL
- concentration at 2 h [2]: 0.36 ng/mL
- concentration at 3 h [2]: 0.0181 ng/mL
- concentration at 6 h [2]: 0.00797 ng/mL
- concentration at 24 h [2]: 0.0105 ng/mL
- concentration at 0 h [3]: 0 ng/mL
- concentration at 5 min [3]: 5 ng/mL
- concentration at 0.167 h [3]: 5.15 ng/mL
- concentration at 0.333 h [3]: 15.5 ng/mL
- concentration at 0.5 h [3]: 14.9 ng/mL
- concentration at 1 h [3]: 31.9 ng/mL
- concentration at 2 h [3]: 2.83 ng/mL
- concentration at 3 h [3]: 1.16 ng/mL
- concentration at 6 h [3]: 0.21 ng/mL
- concentration at 24 h [3]: 0 ng/mL
- concentration at 0 h [4]: 0 ng/mL
- concentration at 5 min [4]: 12.1 ng/mL
- concentration at 0.167 h [4]: 22.5 ng/mL
- concentration at 0.333 h [4]: 12.9 ng/mL
- concentration at 0.5 h [4]: 26.5 ng/mL
- concentration at 1 h [4]: 56.5 ng/mL
- concentration at 2 h [4]: 21.5 ng/mL
- concentration at 3 h [4]: 6.57 ng/mL
- concentration at 6 h [4]: 0.439 ng/mL
- concentration at 24 h [4]: 0 ng/mL
- AUC(0-t) (both sexes, beagle, in vivo, IV bolus BH 0.44 mg/kg, sex-combined, Day 15, read-out: AUC(0-t)): 23 ng·h/mL
- Absolute Bioavailability (% F), AUC(0-t)/D (oral 24 mg/kg vs IV bolus 0.44 mg/kg, sex-combined): 3.01%
- AUC(0-t)/D [5]: 30.2 ± 9.31 hr*ng/mL/(mg/kg)
- Cmax [5]: 770 ng/mL
- Cmax/D [5]: 128 ± 42.1 ng/mL/(mg/kg)
- Intranasal AUC/dose [5]: 30.2 (h · ng/mL)/(mg/kg)
- Tmax [5]: 4.8 min
- AUC(0-t) (female, beagle, in vivo, inhaled or intranasal, 6 mg/kg, AUC(0-6)): 180 ± 57.3 ng·h/mL
- AUC(0-t) (female, beagle, in vivo, inhaled or intranasal, 6 mg/kg, AUC(0-t)): 181 ± 55.8 ng·h/mL
- AUC(0-inf) [6]: 480 ± 336 ng·h/mL
- AUC(0-t)/D [6]: 33.8 ± 21.8 hr*ng/mL/(mg/kg)
- Cmax [6]: 1790 ng/mL
- Cmax/D [6]: 138 ± 102 ng/mL/(mg/kg)
- Intranasal AUC/dose [6]: 33.8 (h · ng/mL)/(mg/kg)
- Tmax [6]: 8.4 min
- AUC(0-t) (female, beagle, in vivo, inhaled or intranasal, 13 mg/kg, AUC(0-6)): 432 ± 281 ng·h/mL
- AUC(0-t) (female, beagle, in vivo, inhaled or intranasal, 13 mg/kg, AUC(0-t)): 440 ± 283 ng·h/mL
- AUC(0-inf) [7]: 302 ng·h/mL
- AUC(0-t)/D [7]: 16.4 ± 0.479 hr*ng/mL/(mg/kg)
- Cmax [7]: 1330 ng/mL
- Cmax/D [7]: 75.1 ± 17.0 ng/mL/(mg/kg)
- Intranasal AUC/dose [7]: 16.4 (h · ng/mL)/(mg/kg)
- Tmax [7]: 4.8 min
- AUC(0-t) (female, beagle, in vivo, inhaled or intranasal, 17.7 mg/kg, AUC(0-6)): 277 ± 7.99 ng·h/mL
- AUC(0-t) (female, beagle, in vivo, inhaled or intranasal, 17.7 mg/kg, AUC(0-t)): 290 ± 8.47 ng·h/mL
- AUC(0-inf) [8]: 14.3 ng·h/mL
- AUC(0-t)/D [8]: 60.3 ± 40.0 hr*ng/mL/(mg/kg)
- Cmax [8]: 43.7 ng/mL
- Cmax/D [8]: 99.3 ng/mL/(mg/kg)
- Tmax [8]: 5.4 min
- Vd [8]: 10.6 L/kg
- clearance [8]: 513 mL/min/kg
- half-life [8]: 14.3 min
- AUC(0-t) (female, beagle, in vivo, iv, 0.44 mg/kg, AUC(0-6)): 16.3 ng·h/mL
- AUC(0-t) (female, beagle, in vivo, iv, 0.44 mg/kg, AUC(0-t)): 26.5 ng·h/mL
- concentration at 0 h [8]: 0.0551 ng/mL
- concentration at 5 min [8]: 43.7 ng/mL
- concentration at 0.167 h [8]: 14.8 ng/mL
- concentration at 0.333 h [8]: 6 ng/mL
- concentration at 0.5 h [8]: 4.06 ng/mL
- concentration at 1 h [8]: 0.268 ng/mL
- concentration at 2 h [8]: 0.274 ng/mL
- concentration at 3 h [8]: 0.095 ng/mL
- concentration at 6 h [8]: 0.648 ng/mL
- concentration at 24 h [8]: 0.405 ng/mL
- AUC(0-6)/D [9]: 1.33 ± 0.483 hr*ng/mL/(mg/kg)
- Cmax [9]: 14.7 ± 4.56 ng/mL
- Cmax/D [9]: 1.22 ± 0.380 ng/mL/(mg/kg)
- Oral AUC/dose [9]: 1.33 (h · ng/mL)/(mg/kg)
- Tmax [9]: 60 min
- AUC(0-t) (female, beagle, in vivo, po, 12 mg/kg, AUC(0-t)): 15.9 ± 5.8 ng·h/mL
- concentration at 0 h [9]: 0 ng/mL
- concentration at 5 min [9]: 2.59 ng/mL
- concentration at 0.167 h [9]: 6.46 ng/mL
- concentration at 0.333 h [9]: 10.1 ng/mL
- concentration at 0.5 h [9]: 7.8 ng/mL
- concentration at 1 h [9]: 14.1 ng/mL
- concentration at 2 h [9]: 0.263 ng/mL
- concentration at 3 h [9]: 0 ng/mL
- concentration at 6 h [9]: 0 ng/mL
- concentration at 24 h [9]: 0 ng/mL
- AUC(0-6)/D [10]: 1.71 ± 0.748 hr*ng/mL/(mg/kg)
- AUC(0-inf) [10]: 27.7 ng·h/mL
- Cmax [10]: 38 ± 26.1 ng/mL
- Cmax/D [10]: 1.58 ± 1.09 ng/mL/(mg/kg)
- Oral AUC/dose [10]: 1.71 (h · ng/mL)/(mg/kg)
- Tmax [10]: 60 min
- half-life [10]: 84.6 min
- AUC(0-t) (female, beagle, in vivo, po, 24 mg/kg, AUC(0-6)): 26.2 ng·h/mL
- AUC(0-t) (female, beagle, in vivo, po, 24 mg/kg, AUC(0-t)): 41 ± 17.9 ng·h/mL
- concentration at 0 h [10]: 0 ng/mL
- concentration at 5 min [10]: 5.32 ng/mL
- concentration at 0.167 h [10]: 5.24 ng/mL
- concentration at 0.333 h [10]: 7.13 ng/mL
- concentration at 0.5 h [10]: 12 ng/mL
- concentration at 1 h [10]: 36.8 ng/mL
- concentration at 2 h [10]: 3.58 ng/mL
- concentration at 3 h [10]: 1.71 ng/mL
